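Protocol summary: plate cells (96-well), add compound at 5 concentrations, incubate 48 h, interpolate endpoints linearly. At the GI50, growth is halved. TGI: total growth inhibition.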
Assays:
Assay in all cases: DTP human tumour cell line panel, 48 h
[1] = tested on: NCI-H226 lung
[2] = tested on: MCF7 breast
[3] = tested on: SK-MEL-28 melanoma
[4] = tested on: BT-549 breast
[5] = tested on: T-47D breast
[6] = tested on: SNB-75 CNS
[7] = tested on: LOX IMVI melanoma
[8] = tested on: SN12C renal
[9] = tested on: OVCAR-3 ovarian
[10] = tested on: NCI/ADR-RES ovarian
[11] = tested on: HT29 colon
[12] = tested on: HL-60(TB) leukemia
[13] = tested on: HCT-116 colon
[14] = tested on: CCRF-CEM leukemia
[15] = tested on: K-562 leukemia
[16] = tested on: TK-10 renal
[17] = tested on: A549 NSCLC
[18] = tested on: RXF 393 renal
[19] = tested on: KM12 colon
[20] = tested on: SW-620 colon
[21] = tested on: SK-OV-3 ovarian
[22] = tested on: UACC-62 melanoma
[23] = tested on: HOP-62 NSCLC
[24] = tested on: DU-145 prostate
[25] = tested on: COLO 205 colon
[26] = tested on: SK-MEL-5 melanoma
[27] = tested on: IGROV1 ovarian
[28] = tested on: UO-31 renal
[29] = tested on: UACC-257 melanoma
[30] = tested on: SR leukemia
[31] = tested on: SF-268 CNS
[32] = tested on: CAKI-1 renal
[33] = tested on: 786-0 renal
[34] = tested on: SF-539 CNS
[35] = tested on: RPMI-8226 leukemia
[36] = tested on: OVCAR-5 ovarian
[37] = tested on: M14 melanoma
[38] = tested on: OVCAR-8 ovarian
[39] = tested on: NCI-H522 lung
[40] = tested on: EKVX NSCLC
[41] = tested on: NCI-H23 lung
[42] = tested on: HCT-15 colon
[43] = tested on: MOLT-4 leukemia
[44] = tested on: SNB-19 CNS
[45] = tested on: U251 CNS
[46] = tested on: MALME-3M melanoma
[47] = tested on: PC-3 prostate
[48] = tested on: MDA-MB-435
[49] = tested on: HS 578T breast
[50] = tested on: MDA-MB-231 breast
[51] = tested on: SF-295 CNS
[52] = tested on: A498 renal
[53] = tested on: SK-MEL-2 melanoma
[54] = tested on: HOP-92 NSCLC
[55] = tested on: ACHN renal
[56] = tested on: OVCAR-4 ovarian
[57] = tested on: HCC-2998 colon

CN1CN(c2ccccc2)C2(CCN(CCc3csc4ccccc34)CC2)C1=O
TGI [1]: 39.6 µM | TGI [2]: 33.9 µM | TGI [3]: 29.7 µM | TGI [4]: 17.7 µM | TGI [5]: 54.2 µM | TGI [6]: 38.5 µM | TGI [7]: 32.8 µM | TGI [8]: 32.1 µM | TGI [9]: 26.6 µM | TGI [10]: 28.1 µM | TGI [11]: 17.8 µM | TGI [12]: 31.2 µM | TGI [13]: 23.4 µM | TGI [14]: 46.6 µM | TGI [15]: 40.1 µM | TGI [16]: 34 µM | TGI [17]: 64.2 µM | TGI [18]: 25.3 µM | TGI [19]: 25.9 µM | TGI [20]: 39.3 µM | TGI [21]: 76.9 µM | TGI [22]: 38 µM | TGI [23]: 26.4 µM | TGI [24]: 54.2 µM | TGI [25]: 35.7 µM | TGI [26]: 33.3 µM | TGI [27]: 52.3 µM | TGI [28]: 14.3 µM | TGI [29]: 28.4 µM | TGI [30]: 80.6 µM | TGI [31]: > 100 µM | TGI [32]: 30.1 µM | TGI [33]: 30.5 µM | TGI [34]: 23 µM | TGI [35]: 37.4 µM | TGI [36]: 25.3 µM | TGI [37]: 38.4 µM | TGI [38]: 51.6 µM | TGI [39]: 34.4 µM | TGI [40]: 43 µM | TGI [41]: 42.5 µM | TGI [42]: 51.5 µM | TGI [43]: 41.9 µM | TGI [44]: 93.4 µM | TGI [45]: 29.8 µM | TGI [46]: 29.1 µM | TGI [47]: 33.5 µM | TGI [48]: 31.6 µM

CO/N=C(\C)c1ccc(Nc2cc(-c3ccccc3)nc3c(O)cccc23)cc1
GI50 [1]: 22.4 µM | TGI [1]: 78.4 µM | GI50 [3]: 25.5 µM | TGI [3]: 84.8 µM | GI50 [4]: 15.5 µM | TGI [4]: 32.7 µM | GI50 [5]: 9.07 µM | TGI [5]: 27.8 µM | GI50 [49]: 18.2 µM | TGI [49]: 46.1 µM | GI50 [50]: 15 µM | TGI [50]: 30.6 µM | GI50 [6]: 22.1 µM | TGI [6]: 46.1 µM | GI50 [7]: 14.3 µM | TGI [7]: 27.9 µM | GI50 [51]: 12.7 µM | TGI [51]: 27.9 µM | GI50 [8]: 16 µM | TGI [8]: 30.6 µM | GI50 [9]: 16.4 µM | TGI [9]: 32.4 µM | GI50 [10]: 14.5 µM | TGI [10]: 30.8 µM | GI50 [11]: 21.9 µM | TGI [11]: 49.5 µM | GI50 [12]: 48.4 µM | TGI [12]: > 100 µM | GI50 [13]: 22.2 µM | TGI [13]: 52.7 µM | GI50 [14]: 6.64 µM | TGI [14]: 22.6 µM | GI50 [15]: 11.6 µM | TGI [15]: 60.4 µM | GI50 [17]: 12.8 µM | TGI [17]: 28.9 µM | GI50 [18]: 14.2 µM | TGI [18]: 30 µM | GI50 [52]: 21.4 µM | TGI [52]: 41.6 µM | GI50 [20]: 13.6 µM | TGI [20]: 40 µM | GI50 [53]: 28 µM | TGI [53]: > 100 µM | GI50 [21]: 18.8 µM | TGI [21]: 35.5 µM | GI50 [22]: 14.6 µM | TGI [22]: 28.8 µM | GI50 [23]: 17.6 µM | TGI [23]: 34.8 µM | GI50 [54]: 17.5 µM | TGI [54]: 33.7 µM | GI50 [24]: 14.1 µM | TGI [24]: 32 µM | GI50 [25]: 17.2 µM | TGI [25]: 34.5 µM | GI50 [26]: 23.9 µM | TGI [26]: 91.4 µM | GI50 [27]: 13.5 µM | TGI [27]: 45.2 µM | GI50 [28]: 19.6 µM | TGI [28]: 42.5 µM | GI50 [29]: 15.9 µM | TGI [29]: 32.3 µM | GI50 [30]: 5.51 µM | TGI [30]: 34.7 µM | GI50 [32]: 19.4 µM | TGI [32]: 35.5 µM | GI50 [33]: 16.3 µM | TGI [33]: 35.2 µM | GI50 [34]: 17.6 µM | TGI [34]: 32.1 µM | GI50 [35]: 15.8 µM | TGI [35]: 37 µM | GI50 [36]: 18.7 µM | TGI [36]: 33.4 µM | GI50 [37]: 14.6 µM | TGI [37]: 29.6 µM | GI50 [55]: 17.8 µM | TGI [55]: 34 µM | GI50 [38]: 13.6 µM | TGI [38]: 33.9 µM | GI50 [39]: 20.6 µM | TGI [39]: 62.1 µM | GI50 [40]: 15.9 µM | TGI [40]: 41.7 µM | GI50 [41]: 14.9 µM | TGI [41]: 30.6 µM | GI50 [42]: 16.2 µM | TGI [42]: 32.5 µM | GI50 [45]: 13.3 µM | TGI [45]: 27.2 µM | GI50 [56]: 19.9 µM | TGI [56]: 50.7 µM | GI50 [47]: 13.7 µM | TGI [47]: 35 µM | GI50 [48]: 15.5 µM | TGI [48]: 30.9 µM | GI50 [57]: 22.1 µM | TGI [57]: 37.1 µM
